According to ChEMBL document CHEMBL1143030, “Synthesis and evaluation of 2-(2,6-dihalophenyl)-3-pyrimidinyl-1,3-thiazolidin-4-one analogues as anti-HIV-1 agents” (Bioorg Med Chem, 2007):
Calls of active or inactive are those of the source. The rule behind the calls is not given here.

Key:
[1] = system: Human immunodeficiency virus 1; experiment: Antiviral activity against HIV1 3B-induced cytopathic effect in MT4 cells assessed as inhibition of virus-induced syncytium formation; type: functional, organism-based; settings: Human immunodeficiency virus 1, 3B
[2] = target: Human immunodeficiency virus type 1 reverse transcriptase (Human immunodeficiency virus 1) (UniProt Q72547); experiment: Inhibition of HIV1 reverse transcriptase at 10 ug/ml
[3] = Cytotoxicity against mock-infected MT4 cells assessed as reduction of cell viability; type: cell-based; settings: human
[4] = Selectivity index, ratio of CC50 for mock-infected MT4 cells to EC50 for HIV1 3B; type: functional
[5] = target: Human immunodeficiency virus type 1 reverse transcriptase (Human immunodeficiency virus 1) (UniProt Q72547); experiment: Inhibition of HIV1 reverse transcriptase at 100 ug/ml
[6] = system: Human immunodeficiency virus 2; experiment: Inhibition of HIV2 ROD replication in MT4 cells; type: functional, organism-based
[7] = Cytotoxicity against mock-infected CEM cells assessed as reduction of cell viability; type: cell-based; settings: human, mock-infected CEM (CCRF-CEM) cells
[8] = Selectivity index, ratio of CC50 for mock-infected CEM cells to EC50 for HIV1 3B; type: functional, CCRF-CEM
[9] = system: Human immunodeficiency virus 1; experiment: Antiviral activity against HIV1 3B-induced cytopathic effect in CEM cells assessed as inhibition of virus-induced syncytium formation; type: functional, organism-based; settings: Human immunodeficiency virus 1, 3B, CCRF-CEM

Structure (SMILES) | EC50 ([1]; read-out: EC50) | inhibition [2] | inhibition [5] | EC50 ([1]; read-out: Log EC50 (converted)) | EC50 [9] | CC50 [3] | Ratio CC50/EC50 [4] | Activity [6] | CC50 [7] | Ratio CC50/EC50 [8]
O=C1CSC(c2c(F)cccc2F)N1c1nc(-c2ccccc2)cc(C(F)(F)F)n1 (configuration not stated) | > 123 µM | 15.6% | 6.6% | – | – | 74.3 µM | <1 | inactive | – | –
Cc1cc(C(F)(F)F)nc(N2C(=O)CSC2c2c(F)cccc2F)n1 (configuration not stated) | 5 µM | 32.3% | 38.9% | 5.01 µM | 4.4 µM | 125 µM | 25 | inactive | 140 µM | 32
Cc1cc(C(F)(F)F)nc(N2C(=O)CSC2c2c(F)cccc2Cl)n1 (configuration not stated) | 1.3 µM | 46.3% | 93.7% | 1.26 µM | 1.1 µM | 16.9 µM | 13 | inactive | 19.3 µM | 18
O=C1CSC(c2c(F)cccc2F)N1c1nc(-c2ccccc2)cc(-c2ccccc2)n1 (configuration not stated) | > 167 µM | 30.1% | 44% | – | – | 177 µM | <1 | inactive | – | –
O=C1CSC(c2c(F)cccc2Cl)N1c1nc(-c2ccccc2)cc(-c2ccccc2)n1 (configuration not stated) | > 242 µM | 55.6% | 66.7% | – | – | > 201 µM | <1 | inactive | – | –
Cc1cc(N2C(=O)CSC2c2c(F)cccc2F)nc(C)n1 (configuration not stated) | 25.5 µM | 27.2% | 58.1% | 25.1 µM | 20.3 µM | 272 µM | 11 | inactive | 272 µM | 13
O=C1CSC(c2c(Cl)cccc2Cl)N1c1nc(-c2ccccc2)cc(-c2ccccc2)n1 (configuration not stated) | > 195 µM | 31.6% | 51.4% | – | – | 193 µM | <1 | inactive | – | –
O=C1CSC(c2c(F)cccc2Cl)N1c1nc(-c2ccccc2)cc(C(F)(F)F)n1 (configuration not stated) | > 10.8 µM | 43.9% | 20.6% | – | – | 93.9 µM | 9 | inactive | – | –
O=C1CSC(c2c(Cl)cccc2Cl)N1c1nc(-c2ccccc2)cc(C(F)(F)F)n1 (configuration not stated) | > 80.2 µM | 25.4% | 39.4% | – | – | 140 µM | <1 | inactive | – | –
Cc1cc(-c2ccccc2)nc(N2C(=O)CSC2c2c(F)cccc2Cl)n1 (configuration not stated) | 3.9 µM | 32.7% | 79.9% | 3.98 µM | 3.9 µM | 146 µM | 38 | inactive | 172 µM | 44
Fc1cccc(F)c1C1SCc2nc3ccccc3n21 (configuration not stated) [THIAZOLOBENZIMIDAZOLE] | 0.35 µM | – | – | – | 1.1 µM | – | 54.5 | – | – | 45
Cc1cc(-c2ccccc2)nc(N2C(=O)CSC2c2c(F)cccc2F)n1 (configuration not stated) | 6.4 µM | 47.4% | 54.2% | 6.31 µM | 5.6 µM | 36.5 µM | 6 | inactive | 36.5 µM | 6
Clc1cccc(Cl)c1C1SCc2nc3ccccc3n21 (configuration not stated) | 0.6 µM | – | – | – | – | 9.4 µM | 16 | – | – | –

More lines, main results first:

EC50 ([1]; read-out: EC50) | inhibition [2] | inhibition [5] | EC50 ([1]; read-out: Log EC50 (converted)) | EC50 [9] | Structure (SMILES) | CC50 [3] | Ratio CC50/EC50 [4] | Activity [6] | CC50 [7] | Ratio CC50/EC50 [8]
4.3 µM | 9.3% | 48.6% | 3.98 µM | 4.1 µM | Cc1cc(N2C(=O)CSC2c2c(F)cccc2Cl)nc(C)n1 (configuration not stated) | 47.6 µM | 11 | inactive | 47.6 µM | 12
4.3 µM | 6.6% | 51.9% | 3.98 µM | 3.8 µM | Cc1cc(N2C(=O)CSC2c2c(Cl)cccc2Cl)nc(C)n1 (configuration not stated) | 41.3 µM | 10 | inactive | 42 µM | 11
6.1 µM | 18% | 51.5% | 6.31 µM | 5.8 µM | Cc1cc(-c2ccccc2)nc(N2C(=O)CSC2c2c(Cl)cccc2Cl)n1 (configuration not stated) | 35.3 µM | 6 | inactive | 35.3 µM | 6
– | 94.8% | 100% | – | – | Cc1nc(N2C(=O)CSC2c2c(Cl)cccc2Cl)nc(C)c1C (configuration not stated) | – | – | – | – | –
– | 99.3% | 100% | – | – | Cc1nc(N2C(=O)CSC2c2c(F)cccc2Cl)nc(C)c1C (configuration not stated) | – | – | – | – | –
1 µM | 32.9% | 43.7% | 1 µM | 0.8 µM | Cc1cc(C(F)(F)F)nc(N2C(=O)CSC2c2c(Cl)cccc2Cl)n1 (configuration not stated) | 46.4 µM | 46 | inactive | 46.7 µM | 62
0.4 µM | 96.3% | 100% | 0.398 µM | 0.3 µM | Cc1nc(N2C(=O)CSC2c2c(F)cccc2F)nc(C)c1C (configuration not stated) | 341 µM | 880 | inactive | > 373 µM | >1222
